Reference: patent publication US7842808B2, “Anti-migraine spirocycles” (Bristol-Myers Squibb Company, priority 2002, dated 2010)
Read-outs that look alike come from different tables or passages of the source.

Tests used:
[1] = target: T1, human CGRP receptor (SK-N-MC cells) (Homo sapiens, UniProt O60894+Q16602); assay: Schild analysis of CGRP stimulated cAMP production; type: cell-based; settings: for slope: Schild plot slope
T1 construct: SK-N-MC cells that endogenously express the human CGRP receptor; endogenous in cells; host or cells: SK-N-MC cells
T1 sequence (Q16602 23-461): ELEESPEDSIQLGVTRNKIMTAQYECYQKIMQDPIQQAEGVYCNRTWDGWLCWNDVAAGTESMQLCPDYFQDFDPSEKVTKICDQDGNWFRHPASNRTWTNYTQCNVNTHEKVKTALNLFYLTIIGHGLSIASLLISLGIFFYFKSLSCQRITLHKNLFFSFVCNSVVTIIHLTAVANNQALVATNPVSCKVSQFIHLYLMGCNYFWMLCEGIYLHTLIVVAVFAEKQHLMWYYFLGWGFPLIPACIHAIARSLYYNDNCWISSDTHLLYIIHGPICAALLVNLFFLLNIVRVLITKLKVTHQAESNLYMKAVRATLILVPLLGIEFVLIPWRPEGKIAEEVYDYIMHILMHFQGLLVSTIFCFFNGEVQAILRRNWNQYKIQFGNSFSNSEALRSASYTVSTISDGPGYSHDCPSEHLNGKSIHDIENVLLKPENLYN
T1 sequence (O60894 27-148): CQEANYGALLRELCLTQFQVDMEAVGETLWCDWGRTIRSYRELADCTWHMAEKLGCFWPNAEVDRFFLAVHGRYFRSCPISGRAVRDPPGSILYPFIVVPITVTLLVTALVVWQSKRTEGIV
Experimental: Functional Antagonism. Antagonism of the compounds of invention was determined by measuring the formation of cyclic AMP (adenosine 3′5′-cyclic monophosphate) in SK-N-MC cells that endogenously express the human CGRP receptor. CGRP receptor complex is coupled with Gs protein and CGRP binding to this complex leads to the cyclic AMP production via Gs—dependent activation of an adenylate cyclase (Juaneda C et al., TiPS, 2000; 21:432-438; incorporated by reference herein). Consequently, CGRP receptor antagonists inhibit CGRP-induced cyclic AMP formation in SK-N-MC cells (Doods H et al., Br J Pharmacol, 2000; 129(3):420-423); incorporated by reference herein). For cyclic AMP measurements SK-N-MC cells were incubated with 0.3 nM CGRP alone or in the presence of various concentrations of the compounds of invention for 30 min at room temperature. Compounds of invention were pre-incubated with SK-N-MC cells for 15 min before the addition of CGRP to allow receptor occupancy (Edvinsson et al., Eur J Pharmacol, 2001, 415:39-44; incorporated by reference herein). Cyclic AMP was extracted using the lysis reagent and its concentration was determined by radioimmunoassay using RPA559 cAMP SPA Direct Screening Assay Kit (Amersham Pharmacia Biotech). IC50 values were calculated using Excel fit.
Schild Analysis. Schild analysis can be used to characterize the nature of antagonism of the compounds of invention. The dose response of CGRP stimulated cAMP production was generated either with CGRP alone, or in the presence of various concentrations of compounds of invention. The antagonist dose is plotted as X against the dose ratio (defined as IC50 of agonist with the presence of the compounds divided by the IC50 of the agonist alone) minus 1 as Y. Linear regression was then performed with both X and Y axis log-transformed. […] Kb is the dissociation constant of the antagonist.

[2] = target: T2, CGRP receptor (SK-N-MC cell membranes) (Homo sapiens, UniProt O60894+Q16602); assay: CGRP Binding Assay ([125I]-CGRP radioligand binding, SK-N-MC homogenate); settings: displacement of [125I]-CGRP, SK-N-MC homogenate; read-out: CGRP binding IC50
T2 construct: endogenous in cells; host or cells: SK-N-MC cells (membrane homogenate)
T2 sequence (Q16602 23-461): as the sequence (Q16602 23-461) above
T2 sequence (O60894 27-148): as the sequence (O60894 27-148) above

[3] = target: T1, human CGRP receptor (SK-N-MC cells); assay: Cyclic AMP Assay, functional antagonism of CGRP-induced cyclic AMP formation; type: cell-based
Experimental: Functional Antagonism. Antagonism of the compounds of invention was determined by measuring the formation of cyclic AMP (adenosine 3′5′-cyclic monophosphate) in SK-N-MC cells that endogenously express the human CGRP receptor. […] For cyclic AMP measurements SK-N-MC cells were incubated with 0.3 nM CGRP alone or in the presence of various concentrations of the compounds of invention for 30 min at room temperature. […] Cyclic AMP was extracted using the lysis reagent and its concentration was determined by radioimmunoassay using RPA559 cAMP SPA Direct Screening Assay Kit (Amersham Pharmacia Biotech). IC50 values were calculated using Excel fit.

[4] = tested on: human cerebral vessels (CGRP-induced dilation); assay: Ex Vivo Human Cerebral Artery Assay, reversal of CGRP-induced relaxation; settings: reversal of 1 nM hCGRP-induced relaxation, vessels pre-contracted with 10 mM KCl
From the text: Rationale and Overview. To provided direct evidence of the ability for novel compounds to reverse CGRP-induced dilation in human cerebral vessels, an ex vivo assay was design. Briefly, isolated vessel rings were mounted in a tissue bath where vessels were pre-contracted with potassium chloride (KCl) and fully dilated with hCGRP, then this relaxation was reversed by the cumulative addition of CGRP-receptor antagonists (complete details follow).
Tissue Samples. Autopsy samples of human arteries were obtained from vendors (ABS Inc. or NDRI). All vessels were transported on ice-cold HEPES buffer (composition in mM: NaCl 130, KCl 4, KH2PO4 1.2, MgSO4 1.2, CaCl2 1.8, Glucose 6, NaHCO3 4, HEPES 10, EDTA 0.025). Upon receipt, the vessels were placed in cold Kreb's buffer (composition in mM: NaCl 118.4, KCl 4.7, KH2PO4 1.2, MgSO4 1.2, CaCl2 1.8, Glucose 10.1, NaHCO3 25) saturated with carbogen (5% CO2 and 95% oxygen).
Isolated Tissue Baths. The vessels were cleaned of connective tissues and cut into cylindrical segments of 4-5 mm in length. The vessels were then mounted in tissue baths between two stainless steel hooks; one of which is fixed and the other of which was connected to a force displacement transducer. The vessel tension was continuously recorded using a data acquisition system (Powerlab, ADInstruments, Mountain View, Calif.) connected to the transducer. The tissue baths containing Krebs buffer and mounted vessels were temperature (37° C.) and pH (7.4) controlled with continuous bubbling of carbogen. The artery segments were allowed to equilibrate for about 30-45 min until a stable resting tone was achieved. Prior to the assay, vessels were primed (conditioned) with 100 mM KCl and subsequently washed. The vessels were pre-contracted with 10 mM KCl and fully dilated with 1 nM hCGRP. Concentration-response curves to CGRP-receptor antagonists were performed by the cumulative addition of drugs in half log units in fully dilated vessels. At each concentration, the effects of the drugs were expressed as % reversal of CGRP-induced relaxation in each vessel. The actual assay and data analysis were performed for each vessel individually, fitting the concentration-response data to a four parameter logistic function by non-linear regression analysis, to estimate the EC50 values.

[5] = SK-N-MC cells, 0.3 nM CGRP, read-out: cAMP Function IC50

## Cc1cc(CC(CC(=O)N2CCC(N3Cc4ccccc4NC3=O)CC2)C(=O)N2CCC3(CC2)OCCO3)cc2cn[nH]c12 (racemic) [Example 70, (±)-1-(1,4-Dioxa-8-aza-spiro[4.5]dec-8-yl)-2-(7-methyl-1H-indazol-5-ylmethyl)-4-[4-(2-oxo-1,4-dihydro-2H-quinazolin-3-yl)-piperidin-1-yl]-butane-1,4-dione]
[1]
  slope: 0.71
[2]
  IC50: < 10 nM
[3]
  IC50: < 10 nM
[4]
  EC50: < 10 nM

## Cc1cc(CC(CC(=O)N2CCC3(CC2)OC(=O)Nc2ccccc23)C(=O)N2CCC(N3CCCCC3)CC2)cc2cn[nH]c12 (racemic) [Example 68, (±)-1-[1,4′]Bipiperidinyl-1′-yl-2-(7-methyl-1H-indazol-5-ylmethyl)-4-[1′,2′-dihydro-2′-oxospiro-[4H-3′,1-benzoxazine-4,4′-piperidinyl]-butane-1,4-dione]
[2]
  IC50: < 10 nM
[3]; [5]
  IC50: < 10 nM
[4]
  EC50: < 10 nM

## O=C(NC(Cc1ccc2[nH]ccc2c1)C(=O)N1CCC(N2CCCCC2)CC1)N1CCC(N2Cc3ccccc3NC2=O)CC1 (racemic) [Example 5, (±)-4-(2-Oxo-1,4-dihydro-2H-quinazolin-3-yl)-piperidine-1-carboxylic acid[2-[1,4′]bipiperidinyl-1′-yl-1-(1H-indol-5-ylmethyl)-2-oxo-ethyl]-amide]
[1]; Schild analysis, dissociation constant of the antagonist, read-out: Kb
  Kb: 3 nM
[1]
  slope: 0.92
[2]
  IC50: < 10 nM
[3]; [5]
  IC50: < 10 nM

## O=C(NC(CN1CCc2[nH]ncc2C1)C(=O)N1CCC(N2CCCCC2)CC1)N1CCC(N2Cc3ccccc3NC2=O)CC1 (racemic) [Example 54, (±)-4-(2-Oxo-1,4-dihydro-2H-quinazolin-3-yl)-piperidine-1-carboxylic acid[2-[1,4′]bipiperidinyl-1′-yl-2-oxo-1-(1,4,6,7-tetrahydro-pyrazolo[4,3-c]pyridin-5-ylmethyl)-ethyl]-amide]
[2]
  IC50: 10 to 100 nM
[3]; [5]
  IC50: 100 to 1000 nM
[4]
  EC50: < 10 nM

## O=C1Nc2ccccc2C2(CCN(C(=O)C[C@H](Cc3csc4ccccc34)C(=O)N3CCC(N4CCCCC4)CC3)CC2)O1 [Example 65]
[2]
  IC50: < 10 nM
[3]; [5]
  IC50: 10 to 100 nM
[4]
  EC50: 10 to 100 nM

## Cc1cc(CC(NC(=O)N2CCC(N3Cc4ccccc4NC3=O)CC2)C(=O)N2CCCC2)cc2cn[nH]c12 (racemic) [Example 20, (±)-4-(2-Oxo-1,4-dihydro-2H-quinazolin-3-yl)-piperidine-1-carboxylic acid[1-(7-methyl-1H-indazol-5-ylmethyl)-2-oxo-2-pyrrolidin-1-yl-ethyl]-amide]
[2]
  IC50: < 10 nM
[3]; [5]
  IC50: < 10 nM
[4]
  EC50: < 10 nM

## Cc1cc(CC(NC(=O)N2CCC3(CC2)NC(=O)Nc2ccccc23)C(=O)N2CCC(N3CCCCC3)CC2)cc2cn[nH]c12 (racemic) [Example 23, (±)-1-(7-Methyl-1H-indazol-5-ylmethyl)-2-[1,4-bipiperidin]-1-yl-2-oxoethyl]-2′,3′-dihydro-2′-oxospiro-[piperidine-4,4′-(1H)-quinazoline]-1-carboxamide]
[2]
  IC50: < 10 nM
[3]; [5]
  IC50: < 10 nM
[4]
  EC50: < 10 nM

## Cc1cc(CC(CC(=O)N2CCC(N3Cc4ccccc4NC3=O)CC2)C(=O)N2CCC(C)CC2)cc2cn[nH]c12 (racemic) [Example 74, (±)-2-(7-Methyl-1H-indazol-5-ylmethyl)-1-(4-methyl-piperidin-1-yl)-4-[4-(2-oxo-1,4-dihydro-2H-quinazolin-3-yl)-piperidin-1-yl]-butane-1,4-dione]
[2]
  IC50: < 10 nM
[3]; [5]
  IC50: < 10 nM
[4]
  EC50: < 10 nM

## COC(=O)C(CC(=O)N1CCC(N2Cc3ccccc3NC2=O)CC1)Cc1cc(C)c2[nH]ncc2c1 (racemic) [Example 67, (±)-2-(7-Methyl-1H-indazol-5-ylmethyl)-4-oxo-4-[4-(2-oxo-1,4-dihydro-2H-quinazolin-3-yl)-piperidin-1-yl]-butyric acid methyl ester]
[2]
  IC50: 10 to 100 nM
[3]; [5]
  IC50: 100 to 1000 nM
[4]
  EC50: 10 to 100 nM

## Cc1cc(CC(CC(=O)N2CCC3(CC2)OC(=O)Nc2ccccc23)C(=O)N(C)C)cc2cn[nH]c12 (racemic) [Example 76, (±)-N,N-Dimethyl-2-(7-methyl-1H-indazol-5-ylmethyl)-4-oxo-4-[1′,2′-dihydro-2′-oxospiro-[4H-3′,1-benzoxazine-4,4′-piperidinyl]-butyramide]
[2]
  IC50: 10 to 100 nM
[3]; [5]
  IC50: 10 to 100 nM
[4]
  EC50: < 10 nM

## CCc1cc(CC(NC(=O)N2CCC(N3Cc4ccccc4NC3=O)CC2)C(=O)N2CCC(N3CCCCC3)CC2)cc2cn[nH]c12 (racemic) [Example 45, (±)-4-(2-Oxo-1,4-dihydro-2H-quinazolin-3-yl)-piperidine-1-carboxylic acid[2-[1,4′]bipiperidinyl-1′-yl-1-(7-ethyl-1H-indazol-5-ylmethyl)-2-oxo-ethyl]-amide]
[1]
  slope: 1.4
[2]
  IC50: < 10 nM

## Cc1cc(CC(NC(=O)N2CCC3(CC2)OC(=O)Nc2ccccc23)C(=O)N2CCC(N3CCCCC3)CC2)cc2cn[nH]c12 (racemic) [Example 25, (±)-1-(7-Methyl-1H-indazol-5-ylmethyl)-2-[1,4-bipiperidin]-1-yl-2-oxoethyl]-1′,2′-dihydro-2′-oxospiro-[4H-3′,1-benzoxazine-4,4′-piperidine]-1-carboxamide]
[2]
  IC50: < 10 nM
[3]; [5]
  IC50: < 10 nM
[4]
  EC50: < 10 nM

## O=C(C[C@H](Nc1ccc2[nH]ccc2c1)C(=O)N1CCC(N2CCCCC2)CC1)N1CCC(N2Cc3ccccc3NC2=O)CC1 [Example 86, (L)-1-[1,4′]Bipiperidinyl-1′-yl-2-(1H-indol-5-ylamino)-4-[4-(2-oxo-1,4-dihydro-2H-quinazolin-3-yl)-piperidin-1-yl]-butane-1,4-dione]
[2]
  IC50: 100 to 1000 nM
[3]; [5]
  IC50: 10 to 100 nM
[4]
  EC50: 100 to 1000 nM

## Cc1cc(CC(NC(=O)N2CCC(N3Cc4ccccc4NC3=O)CC2)C(=O)N2CCN(C)CC2)cc2cn[nH]c12 (racemic) [Example 19, (±)-4-(2-Oxo-1,4-dihydro-2H-quinazolin-3-yl)-piperidine-1-carboxylic acid[1-(7-methyl-1H-indazol-5-ylmethyl)-2-(4-methyl-piperazin-1-yl)-2-oxo-ethyl]-amide]
[2]
  IC50: < 10 nM
[3]; [5]
  IC50: < 10 nM
[4]
  EC50: < 10 nM

## Cc1cc(CC(CC(=O)N2CCC(N3Cc4ccccc4NC3=O)CC2)C(=O)N(C)C)cc2cn[nH]c12 (racemic) [Example 72, (±)-N,N-Dimethyl-2-(7-methyl-1H-indazol-5-ylmethyl)-4-oxo-4-[4-(2-oxo-1,4-dihydro-2H-quinazolin-3-yl)-piperidin-1-yl]-butyramide]
[2]
  IC50: < 10 nM
[3]; [5]
  IC50: < 10 nM
[4]
  EC50: < 10 nM
